Legend:
[1] = Hydroxyl radical (HO•) scavenging, second-order rate constant by laser flash photolysis (thiocyanate competition); settings: calculated in H2O; mean of three replicates
Source text: Biologically, the hydroxyl radical (HO^●) is widely believed to be generated when hydrogen peroxide reacts with Fe(II) (Fenton reaction). The putative HO^●∙is an extremely reactive and short-lived species that can damage DNA, proteins, and lipids. However, the Fe(II)/H2O2 mixture has disadvantages in a scavenging assay because many flavonoids as well as flavonolignans are also metal chelators. When the sample is mixed with Fe(II), it may alter the activity of Fe(II) by chelation. As a result, it is impossible to distinguish if the antioxidants are simply good metal chelators or HO^● scavengers. In our study the second order rate constants for HO^● reactions with silybin dimers (6aa, 6bb and 6ab) have been determined by pulse photolysis method using hydrogen peroxide (H2O2) as ROS sources. […] This could be explained considering that in dimers 9′′-9′′ the 3, 5 and 4′′ OH functions, responsible for the radical scavenger activity, are not involved in any bond. […]
The reactivity constant between new silybin dimers and hydroxyl radical has been determined using Laser flash Photolysis system. […]
The formation of di-thiocyanate radical anion (SCN2^●−) through reactivity of photogenerated hydroxyl radicals (HO^●) with thiocyanate (SCN^- in the presence of hydrogen peroxide. The second-order rate constants between HO^● and dimers were determined following reactions (R1–R4 in the Section 2.2) and using the following equation:(1) Abs0/Abs=1+kHO^•,DimerII[Dimer]/kHO^•,SCN^−II[SCN^−] where Abs0 and Abs are the absorption of SCN2•− at 475 nm in absence and presence of dimers; kHO^•,SCN^−II and kHO^•,DimerII are the second-order rate constants of HO^● with thiocyanate and dimers at different concentrations. […] Means were compared by one way analysis of variance (ANOVA) and significant differences were assessed by post hoc tests of least significant. […]

Jurkat = experiment: Antiproliferative activity on Jurkat cells (CCK-8); type: cell-based; settings: Homo sapiens, 48 h incubation
Protocol: (§1) Human T lymphoblastoid (Jurkat) and human metastatic melanoma (WM266) cell lines were grown in RPMI medium supplemented with heat inactivated 10% fetal bovine serum (FBS), 2.5 mM glutamine, 100 U/mL penicillin, and 100 μg/mL streptomycin (Euroclone). Human cervix adenocarcinoma cell line (HeLa), human lung carcinoma (A549), human pancreatic cancer (PANC), human glioblastoma (U87) normal human fibroblasts (HDF) were grown in DMEM supplemented with 10% fetal bovine serum (FBS), 1% glutamine, 100 U/mL penicillin and 100 μg/mL streptomycin (Euroclone, Milano, Italy). Cells were maintained in humidified air containing 5% CO2, at 37 °C [30].
(§2) Cells were plated at density of 10,000 cells/well for Jurkat, 2000/well for WM266 and HDF, 1200 cells/well for HeLa, and 1000 for PANC, U87 and A375 in 96-well microplates (Thermofisher, Waltham, MA, USA). After 24 h incubation, cells were treated with increasing concentrations of synthetized compounds previously solubilized in DMSO at 50 mM concentration. Cell proliferation was determined by using (2-(2-methoxy-4-nitrophenyl)-3-(4-nitrophenyl)-5-(2,4-disulfophenyl)-2H-tetrazolium, monosodium salt (CCK-8, Sigma Aldrich) for Jurkat cells, and the 3-(4,5-dimethylthiazol-2-yl)-2,5- diphenyltetrazolium bromide assay (MTT, Sigma Aldrich, Sigma Aldrich, St. Louis, MO, USA)) for HeLa, WM266, PANC, U87 and HDF cells, after 48 h treatment. Plates were then analyzed by using a microplate reader (Enspire, Perkin Elmer Italia Spa, Milano, Italy) at 450 (CCK-8) or 570 nm (MTT).
(§3) The results are presented as the percentage of proliferating cells respect to the control (vehicle treated cells) and are expressed as means ± SE of, at least, three independent experiments performed in triplicate. The statistical analysis was performed using Student’s t-test, unpaired, two-sided, p < 0.05 was considered significant. The IC50 values were calculated by GraphPad Prism software.

HDF = experiment: Antiproliferative activity on normal human fibroblasts HDF; type: cell-based; settings: 48 h incubation
Protocol: as §1, §2, §3

[2] = Apoptosis assay, annexin V-FITC/PI double staining, flow cytometry; type: cell-based, Human; settings: human, Jurkat cells, 37 °C, Figure 4, read-out: viable cells (lower left quadrant)
Protocol: (§4) For this purpose, Jurkat was incubated with the molecules at a concentration of 200 μM, and flow cytometric analysis with annexin V/propidium iodine (PI) double staining was carried out.
(§5) The apoptosis analysis was performed on Jurkat cells seeded at 2.5 × 10^5 cells/mL in a 6-well plate. The cells were incubated in the absence or presence of 200 μM concentration of examined compounds at 37 °C and apoptosis induction was analysed after 48 h by double staining with annexin V/FITC and propidium iodide (PI) (eBioscience, Affimetrix Santa Clara, CA, USA). The cells undergoing apoptosis were quantified using a flow cytometer equipped with a 488 nm argon laser (Becton Dickinson, Franklin Lakes, NJ, USA) by Cell Quest software. All FACS analyses were performed at least 2 times.

Jurkat cells = experiment: as above; type: cell-based, Human; settings: 200 μM, 48 h
Protocol: as §4, §5

[3] = design: method as in PMID 28800072; settings: estimated, relative to silibinin; cited from earlier work

Compound | IC50 (Jurkat) | Second order rate constant kHO•,X II [1] | IC50 (HDF) | viability at 48 h, 200 µM [2] | apoptotic cells (early and advanced) with respect to the control (Jurkat cells) | reactivity towards HO• with respect to silibinin [3]
COc1cc([C@@H]2Oc3cc([C@H]4Oc5cc(O)cc(O)c5C(=O)[C@@H]4O)ccc3O[C@H]2CO)ccc1O [Compound 1b, silybin B, reference compound] | 36 ± 14.3 µM | – | 172 ± 39 µM | 17.1% | 70% | –
COc1cc(C2Oc3cc([C@H]4Oc5cc(O)cc(O)c5C(=O)[C@@H]4OP(=O)(O)OCC4Oc5ccc([C@H]6Oc7cc(O)cc(O)c7C(=O)[C@@H]6O)cc5OC4c4ccc(O)c(OC)c4)ccc3OC2CO)ccc1O (stereo partly shown) [3-9′′] | – | – | – | – | – | about two times
COc1cc(C2Oc3cc([C@H]4Oc5cc(O)cc(O)c5C(=O)[C@@H]4O)ccc3OC2COP(=O)(O)OCC2Oc3ccc([C@H]4Oc5cc(O)cc(O)c5C(=O)[C@@H]4O)cc3OC2c2ccc(O)c(OC)c2)ccc1O (stereo partly shown) [9′′-9′′] | – | – | – | – | – | about two times

The remaining compounds from weak to strong by IC50 (Jurkat), led by results:

IC50 (Jurkat) | Compound | Second order rate constant kHO•,X II [1] | IC50 (HDF) | viability at 48 h, 200 µM [2] | apoptotic cells (early and advanced) with respect to the control (Jurkat cells) | reactivity towards HO• with respect to silibinin [3]
71 ± 15.5 µM | COc1cc([C@H]2Oc3cc([C@H]4Oc5cc(O)cc(O)c5C(=O)[C@@H]4O)ccc3O[C@@H]2COP(=O)(O)OC[C@H]2Oc3ccc([C@H]4Oc5cc(O)cc(O)c5C(=O)[C@@H]4O)cc3O[C@@H]2c2ccc(O)c(OC)c2)ccc1O [Compound 6aa] | 8.63 ± 1.35 × 10^9 M^−1·s^−1 | > 200 µM | 73% | 20% | –
64 ± 10.8 µM | COc1cc([C@H]2Oc3cc([C@H]4Oc5cc(O)cc(O)c5C(=O)[C@@H]4O)ccc3O[C@@H]2COP(=O)(O)OC[C@@H]2Oc3ccc([C@H]4Oc5cc(O)cc(O)c5C(=O)[C@@H]4O)cc3O[C@H]2c2ccc(O)c(OC)c2)ccc1O [Compound 6ab] | 1.48 ± 0.09 × 10^10 M^−1·s^−1 | > 200 µM | 63.6% | about 25% | –
59 ± 19.9 µM | COc1cc([C@@H]2Oc3cc([C@H]4Oc5cc(O)cc(O)c5C(=O)[C@@H]4O)ccc3O[C@H]2COP(=O)(O)OC[C@@H]2Oc3ccc([C@H]4Oc5cc(O)cc(O)c5C(=O)[C@@H]4O)cc3O[C@H]2c2ccc(O)c(OC)c2)ccc1O [Compound 6bb] | 1.01 ± 0.16 × 10^10 M^−1·s^−1 | > 200 µM | 84.8% | 4% | –
46.7 ± 14.1 µM | COc1cc([C@H]2Oc3cc([C@H]4Oc5cc(O)cc(O)c5C(=O)[C@@H]4O)ccc3O[C@@H]2CO)ccc1O [Compound 1a, silybin A, reference compound] | – | 199 ± 34.5 µM | 20.2% | 70% | –
